From patent US20140315933A1, “CHEMICAL COMPOUNDS” (Pfizer Limited, priority 2013, published 2014)
Structures can show the parent of a compound that is named as a salt.

What follows are molecules tested against T1, URAT-1 transporter (Homo sapiens, UniProt Q96S37) (assay: URAT-1 inhibitor activity: [14C]-uric acid uptake into CHO-URAT1(L)GFP#8 (CHO#8) cells, scintillation proximity).
T1 construct: expressed in transfected cells
Type: cell-based
Outline: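 CHO cells stably expressing human URAT1 long isoform C-terminally fused to eGFP, preincubated 1 hour in chloride-containing buffer, then 15 minutes with compound (0–10 μM, 0.25% DMSO) in chloride-free buffer pH 7.4. [14C]-uric acid at 30 nM final added; uptake read by scintillation proximity after three hours at room temperature, dark.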

T1 sequence (Q96S37 with tags, fused parts or gaps): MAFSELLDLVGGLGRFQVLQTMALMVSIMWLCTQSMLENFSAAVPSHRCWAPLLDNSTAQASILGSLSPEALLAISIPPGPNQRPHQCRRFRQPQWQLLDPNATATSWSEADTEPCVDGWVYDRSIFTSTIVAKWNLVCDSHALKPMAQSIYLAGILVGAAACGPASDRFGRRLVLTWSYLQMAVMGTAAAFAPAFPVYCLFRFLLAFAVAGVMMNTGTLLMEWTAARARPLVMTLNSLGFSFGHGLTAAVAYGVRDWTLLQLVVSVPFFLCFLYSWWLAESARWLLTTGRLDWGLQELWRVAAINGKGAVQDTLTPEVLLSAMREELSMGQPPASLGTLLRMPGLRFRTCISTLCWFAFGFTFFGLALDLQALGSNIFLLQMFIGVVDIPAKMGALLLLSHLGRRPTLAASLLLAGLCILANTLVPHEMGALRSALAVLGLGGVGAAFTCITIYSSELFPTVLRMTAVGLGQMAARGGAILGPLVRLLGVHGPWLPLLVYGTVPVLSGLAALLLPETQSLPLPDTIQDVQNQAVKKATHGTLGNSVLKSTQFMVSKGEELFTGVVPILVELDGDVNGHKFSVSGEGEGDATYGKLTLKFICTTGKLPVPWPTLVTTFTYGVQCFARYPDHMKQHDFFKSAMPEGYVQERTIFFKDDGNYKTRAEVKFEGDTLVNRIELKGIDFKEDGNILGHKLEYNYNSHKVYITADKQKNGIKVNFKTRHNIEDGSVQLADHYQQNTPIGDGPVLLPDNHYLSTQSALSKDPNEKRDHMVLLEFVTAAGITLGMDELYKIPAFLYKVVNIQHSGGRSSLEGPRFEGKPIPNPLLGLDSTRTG

IC50 [nM] | SMILES
2040 | N#Cc1cc(Oc2cc(F)c(S(=O)(=O)Nc3ncns3)cc2F)ccc1F [compound 213]
> 10000 | Cc1cc(S(=O)(=O)Nc2nncs2)c(F)cc1Oc1ccc(F)c(C#N)c1 [compound 214]
> 10000 | N#Cc1ccc(Oc2c(F)cc(S(=O)(=O)Nc3ncns3)cc2F)cc1Cl [compound 215]
1420 | N#Cc1cc(Oc2ccc(S(=O)(=O)Nc3nncs3)cc2Cl)ccc1F [compound 216]
> 10000 | N#Cc1cc(Oc2cc(F)c(S(=O)(=O)Nc3nncs3)cc2F)ccc1F [compound 217]
> 1660 | N#Cc1ccc(Oc2ccc(S(=O)(=O)Nc3ncns3)cc2C#N)cc1Cl [compound 218]
426 | N#Cc1ccc(Oc2ccc(S(=O)(=O)Nc3nncs3)cc2C#N)cc1Cl [compound 219]
110 | N#Cc1ccc(Oc2ccc(S(=O)(=O)Nc3cscn3)cc2C#N)cc1Cl [compound 220, 4-(3-chloro-4-cyanophenoxy)-3-cyano-N-(1,3-thiazol-4-yl)benzenesulfonamide]
> 10000 | N#Cc1cc(Oc2cc(F)c(S(=O)(=O)Nc3cscn3)cc2F)ccc1F [compound 221]
> 3130 | N#Cc1cc(Oc2cc(F)c(S(=O)(=O)Nc3cscn3)cc2Br)ccc1F [compound 222]
> 10000 | Cc1cc(S(=O)(=O)Nc2cscn2)c(F)cc1Oc1ccc(F)c(F)c1 [compound 223]
> 10000 | O=S(=O)(Nc1cscn1)c1ccc(Oc2ccc(F)c(F)c2)cc1F [compound 224]
300 | N#Cc1ccc(Oc2ccc(S(=O)(=O)Nc3cscn3)c(F)c2)cc1Cl [compound 225]
> 10000 | O=S(=O)(Nc1nccs1)c1ccc(Oc2ccc(F)c(F)c2)c(F)c1 [compound 226]
> 10000 | N#Cc1ccc(Oc2ccc(S(=O)(=O)Nc3cscn3)c(Cl)c2)cc1Cl [compound 227]
123 | N#Cc1cc(S(=O)(=O)Nc2cscn2)ccc1Oc1ccc(F)c(F)c1 [compound 228, 3-cyano-4-(3,4-difluorophenoxy)-N-(1,3-thiazol-4-yl)benzenesulfonamide]
> 10000 | O=S(=O)(Nc1cscn1)c1cc(Cl)c(Oc2ccc(F)c(F)c2)cc1F [compound 229]
> 10000 | N#Cc1ccc(Oc2cc(F)c(S(=O)(=O)Nc3cscn3)cc2F)cc1Cl [compound 231]
513 | N#Cc1ccc(Oc2ccc(S(=O)(=O)Nc3nccs3)cc2F)cc1Cl [compound 232]
> 10000 | N#Cc1cc(Oc2ccc(S(=O)(=O)Nc3cscn3)c(F)c2)ccc1F [compound 233]
> 10000 | O=S(=O)(Nc1cscn1)c1cc(Br)c(Oc2ccc(F)c(F)c2)cc1F [compound 234]

IC50 [nM] | SMILES
> 10000 | N#Cc1cc(Oc2cc(F)c(S(=O)(=O)Nc3cscn3)cc2Cl)ccc1F [compound 235]
> 10000 | N#Cc1cc(Oc2ccc(S(=O)(=O)Nc3cscn3)c(Cl)c2)ccc1F [compound 236]
> 10000 | O=S(=O)(Nc1cscn1)c1ccc(Oc2ccc(F)c(F)c2)cc1Cl [compound 237]
> 10000 | O=S(=O)(Nc1cscn1)c1cc(F)c(Oc2ccc(F)c(F)c2)cc1F [compound 238]
> 10000 | N#Cc1ccc(Oc2cc(F)c(S(=O)(=O)Nc3cscn3)cc2Cl)cc1Cl [compound 239]
577 | N#Cc1cc(Oc2ccc(S(=O)(=O)Nc3cscn3)cc2I)ccc1F [compound 240]
> 10000 | O=S(=O)(Nc1cscn1)c1ccc(Oc2ccc(F)c(F)c2)c(I)c1 [compound 241]
967 | N#Cc1cc(Oc2ccc(S(=O)(=O)Nc3nccs3)cc2F)ccc1F [compound 242]
1320 | N#Cc1cc(S(=O)(=O)Nc2ncns2)ccc1Oc1c(F)cccc1Cl [compound 251]
1110 | Cc1cncc(Oc2ccc(S(=O)(=O)Nc3ncns3)cc2C#N)c1 [compound 252, trifluoroacetic acid salt]
2130 | N#Cc1cc(S(=O)(=O)Nc2ncns2)ccc1Oc1cccnc1 [compound 253, trifluoroacetic acid salt]
878 | CSc1ncccc1Oc1ccc(S(=O)(=O)Nc2ncns2)cc1C#N [compound 254, trifluoroacetic acid salt]
684 | CCSc1ncccc1Oc1ccc(S(=O)(=O)Nc2ncns2)cc1C#N [compound 255, trifluoroacetic acid salt]
> 4820 | COc1ccc(Oc2ccc(S(=O)(=O)Nc3ncns3)cc2C#N)c(C)c1 [compound 256]
1200 | COc1ccc(Oc2ccc(S(=O)(=O)Nc3ncns3)cc2C#N)cc1F [compound 257]
3120 | Cc1ccc(Oc2ccc(S(=O)(=O)Nc3ncns3)cc2C#N)cc1 [compound 258]
3130 | CCOc1cc(C)ccc1Oc1ccc(S(=O)(=O)Nc2ncns2)cc1C#N [compound 259]
1960 | Cc1cccc(Oc2ccc(S(=O)(=O)Nc3ncns3)cc2C#N)c1 [compound 260]
1820 | COc1ccc(Cl)c(Oc2ccc(S(=O)(=O)Nc3ncns3)cc2C#N)c1 [compound 261]
3580 | CC(C)Oc1ccc(F)cc1Oc1ccc(S(=O)(=O)Nc2ncns2)cc1C#N [compound 262]
2250 | COc1cccc(Cl)c1Oc1ccc(S(=O)(=O)Nc2ncns2)cc1C#N [compound 263]

IC50 [nM] | SMILES
1650 | COc1c(F)ccc(Oc2ccc(S(=O)(=O)Nc3ncns3)cc2C#N)c1C [compound 264]
2430 | COc1cccc(F)c1Oc1ccc(S(=O)(=O)Nc2ncns2)cc1C#N [compound 265]
1570 | COc1c(Oc2ccc(S(=O)(=O)Nc3ncns3)cc2C#N)ccc(F)c1C [compound 266]
930 | COc1cc(Cl)ccc1Oc1ccc(S(=O)(=O)Nc2ncns2)cc1C#N [compound 267]
1470 | COc1ccc(Oc2ccc(S(=O)(=O)Nc3ncns3)cc2C#N)cc1Cl [compound 268]
278 | COc1cc(Cl)cc(Oc2ccc(S(=O)(=O)Nc3ncns3)cc2C#N)c1 [compound 269]
957 | COc1cc(F)c(F)cc1Oc1ccc(S(=O)(=O)Nc2ncns2)cc1C#N [compound 270]
4540 | COc1ccccc1Oc1ccc(S(=O)(=O)Nc2ncns2)cc1C#N [compound 271]
> 4320 | Cc1ccncc1Oc1ccc(S(=O)(=O)Nc2ncns2)cc1C#N [compound 272, trifluoroacetic acid salt]
> 10000 | CCc1ncccc1Oc1ccc(S(=O)(=O)Nc2ncns2)cc1C#N [compound 273, trifluoroacetic acid salt]
> 10000 | CC(C)c1ncccc1Oc1ccc(S(=O)(=O)Nc2ncns2)cc1C#N [compound 274, trifluoroacetic acid salt]
> 10000 | Cc1ccnc(C)c1Oc1ccc(S(=O)(=O)Nc2ncns2)cc1C#N [compound 275, trifluoroacetic acid salt]
> 10000 | CCc1nc(C)ccc1Oc1ccc(S(=O)(=O)Nc2ncns2)cc1C#N [compound 276, trifluoroacetic acid salt]
> 5430 | COc1ccc(F)cc1Oc1ccc(S(=O)(=O)Nc2ncns2)cc1C#N [compound 277]
2740 | CC(C)Oc1ccccc1Oc1ccc(S(=O)(=O)Nc2ncns2)cc1C#N [compound 278]
> 10000 | CCOc1ccc(Oc2ccc(S(=O)(=O)Nc3ncns3)cc2C#N)cc1 [compound 279]
2290 | CCOc1cccc(Oc2ccc(S(=O)(=O)Nc3ncns3)cc2C#N)c1 [compound 280]
3250 | CCOc1ccccc1Oc1ccc(S(=O)(=O)Nc2ncns2)cc1C#N [compound 281]
1660 | COc1ccc(F)c(Oc2ccc(S(=O)(=O)Nc3ncns3)cc2C#N)c1F [compound 282]
> 8570 | COc1c(Cl)cccc1Oc1ccc(S(=O)(=O)Nc2ncns2)cc1C#N [compound 283]
2520 | COc1ccc(C)cc1Oc1ccc(S(=O)(=O)Nc2ncns2)cc1C#N [compound 284]

IC50 [nM] | SMILES
5590 | COc1cc(C)ccc1Oc1ccc(S(=O)(=O)Nc2ncns2)cc1C#N [compound 285]
1010 | COc1cc(F)ccc1Oc1ccc(S(=O)(=O)Nc2ncns2)cc1C#N [compound 286]
1440 | COc1ccc(F)c(Oc2ccc(S(=O)(=O)Nc3ncns3)cc2C#N)c1 [compound 287]
431 | Cc1c(Oc2ccc(S(=O)(=O)Nc3ncns3)cc2C#N)ccc(F)c1F [compound 288]
479 | COc1cc(F)cc(Oc2ccc(S(=O)(=O)Nc3ncns3)cc2C#N)c1 [compound 289]
1100 | COc1ccc(Oc2ccc(S(=O)(=O)Nc3ncns3)cc2C#N)c(Cl)c1 [compound 290]
1130 | N#Cc1cc(S(=O)(=O)Nc2ncns2)ccc1Oc1cccc(Cl)c1 [compound 291]
1130 | COc1cc(C)cc(Oc2ccc(S(=O)(=O)Nc3ncns3)cc2C#N)c1 [compound 292]
> 6150 | COc1cccc(Oc2ccc(S(=O)(=O)Nc3ncns3)cc2C#N)c1C [compound 293]
888 | N#Cc1cc(S(=O)(=O)Nc2ncns2)ccc1Oc1ccc(F)cc1 [compound 294]
478 | CC(C)Oc1ccc(F)cc1Oc1cc(F)c(S(=O)(=O)Nc2nncs2)cc1Cl [compound 295]
> 10000 | COc1cc(C#N)ccc1Oc1cc(F)c(S(=O)(=O)Nc2nncs2)cc1Cl [compound 296]
1010 | COc1cc(F)cc(Oc2cc(F)c(S(=O)(=O)Nc3nncs3)cc2Cl)c1 [compound 297]
4390 | CC(C)c1ncccc1Oc1cc(F)c(S(=O)(=O)Nc2nncs2)cc1Cl [compound 298]
4370 | COc1cc(C)ccc1Oc1cc(F)c(S(=O)(=O)Nc2nncs2)cc1Cl [compound 299]
329 | COc1ccc(C)cc1Oc1cc(F)c(S(=O)(=O)Nc2nncs2)cc1Cl [compound 300]
382 | COc1cc(C)cc(Oc2cc(F)c(S(=O)(=O)Nc3nncs3)cc2Cl)c1 [compound 301]
1060 | COc1cc(Cl)cc(Oc2cc(F)c(S(=O)(=O)Nc3nncs3)cc2Cl)c1 [compound 302]
> 1430 | COc1cccc(Cl)c1Oc1cc(F)c(S(=O)(=O)Nc2nncs2)cc1Cl [compound 303]
